Results published in patent publication US12144792B2, “Therapeutic agents for neurodegenerative diseases” (priority 2016, dated 2024).

What was measured:
[1] = system: patient with Lewy Body dementia; assay: Case study, clinical evaluation; assay type: in vivo, human; details: Ex. 17, Lewy Body dementia; 3 g/day one week, 5 g/day thereafter; after four weeks
Experimental: The patient started taking acetyl-leucine (3 g/day for one week; 5 g/day thereafter) and was evaluated after four weeks. […] Medication was reduced to 3 g/day, and the patient was instructed to stop medication about two weeks later.

[2] = system: Hexb^−/− mouse (Sandhoff disease model); assay: Step cycle; assay type: in vivo; details: Sandhoff mice, 0.1 g/kg from 3 weeks, 12 weeks of age
Experimental: This study made use of a mouse model of Sandhoff disease, the Hexb^−/− mouse, as described in Jeyakumar et al. (Jeyakumar, M. et al. (1999) Proc. Natl. Acad. Sci. USA 96: 6388-6393). Step cycle is the length of time taken during locomotion by a limb from the time it leaves the ground until it leaves the ground on the next occasion. Step cycle time was assessed at 12 weeks of age in untreated and acetyl-leucine treated Sandhoff model mice. Acetyl-leucine treatment constituted 0.1 g/kg body weight acetyl-leucine from 3 weeks of age.

[3] = system: patients with ataxia; details: patients with ataxia (Becker-Bense et al. 2015); cited from earlier work
[4] = system: patients with amyotrophic lateral sclerosis (ALS); assay: Case studies, medical examination; assay type: in vivo, human
Source text: The results were documented by video.

[5] = system: patients with cerebellar ataxia; details: cited from earlier work
[6] = system: patient with frontotemporal dementia with parkinsonism; assay: Case study, clinical examination; assay type: in vivo, human
Source text: After approximately one month of acetyl-leucine treatment, medication was stopped and the patient was re-examined 13 days later.

[7] = system: Npc1^−/− mice; assay: Gait analysis (CatWalk); assay type: in vivo, mouse; details: 0.1 g/kg from weaning, eight weeks of age, vs untreated littermates
Experimental: Separate groups of Npc1^−/− and Npc1^+/+ mice were left untreated, as controls. Gait analysis was performed on mice at eight weeks of age using a CatWalk® 15.0 system according to manufacturer's instructions (Noldus, Nottingham, UK). Five runs were recorded per animal. CatWalk® parameters measured were: • 1. Stand Mean: average duration (s) of paws in contact with glass plate; • 2. Step Cycle: duration (s) between two consecutive contacts of the same paw; • 3. Duty Cycle: percentage of time paws in contact with plate compared with time to complete a step cycle; • 4. Step Sequence (AB): percentage of time spent walking in LF-RH-RF-LH alternating pattern (LF: left front; RH: right hind; RF: right front; LH left hind); • 5. Cadence: step per seconds in a trial; • 6. Diagonal Support: percentage of time with simultaneous contact of diagonal paws with the glass plate (RF&LH or RH&LF). Motor Function Analysis

[8] = system: patients with ataxia with oculomotor apraxia type 4; assay: Case study, report of the patients'; assay type: in vivo, human; details: Ex. 18, youngest sibling, AOA4; reported by parent
Source text: In this case study, four patients (male siblings) suffered from, and were later diagnosed with, ataxia with oculomotor apraxia type 4. The older three siblings […], at the time of disease onset. […] The older siblings began treatment with acetyl-leucine […], respectively, and have been on the treatment for approximately four years. No long-term clinical data is available for these three patients.
The youngest sibling was […] at the time of onset. […] No long-term clinical data is available for the youngest sibling.

[9] = system: Mucolipidosis Type IIIA (MLIIIA) patient fibroblasts; assay: Lysosomal volume via LysoTracker; assay type: cell-based, human; details: 1 mM, 6 days, vs untreated
[10] = system: patient with spinocerebellar ataxia 28 (SCA 28); assay: Case study, clinical evaluation; assay type: in vivo, human; details: Ex. 14, SCA 28; 5 g per day; after about one month
Experimental: A gait analysis was performed before treatment commenced. After about one month of treatment, medication was stopped and the patient was evaluated. […] The patient reported that they no longer walked like a robot and could climb the stairs without using the banisters.

[11] = system: patient with Spinocerebellar Ataxia (SCA) 1; assay: Case study, clinical examination; assay type: in vivo, human; details: Ex. 16, SCA 1
Source text: Three months later the medication was stopped.

[12] = system: patients with multiple system atrophy Parkinson type (MSA-P); assay: Case studies, clinical examination; assay type: in vivo, human
Source text: Medication was stopped. […] The patient evaluated after one month on acetyl-DL-leucine. […] Episodes of mental confusion completely disappeared. The patient's cognitive structure seemed much clearer and straighter. […] The patient's spouse supported continuing the medication.

[13] = Ex. 7 Patient 1, ALS, after a further 20 days

## CC(=O)NC(CC(C)C)C(=O)O (racemic) [acetyl-DL-leucine]
[1]
  patient-reported symptoms: increased fatigue and a deterioration of balance and speech
[2]; p<0.001 vs untreated
  average step cycle time: significantly faster average step cycle times
[2]; p<0.01 vs untreated
  hind step cycle time: significantly faster hind step cycle times
[2]; p<0.05 vs untreated
  front step cycle time: significantly faster front step cycle times
[3]
  brain metabolism (PET): increased metabolism in the midbrain and lower brainstem in responders
[4]; Ex. 7 Patient 1, ALS, 3 then 5 gram per day, after 15 days
  speech: significant improvement of speech
[4]; Ex. 7 Patient 1, ALS, about 7 days plus 1-2 additional weeks off treatment
  speech after stopping treatment: deterioration of speech
[4]; [13]
  paresis of the right foot-dorsiflexors and foot drop: improved dramatically and were clinically hardly detectable
  sleep: improvement in sleep
  speech: further improvement of speech
[4]; Ex. 7 Patient 1, ALS, resumed after second discontinuation
  symptomatology after resuming treatment: improved symptomatology, in particular speech
[4]; Ex. 7 Patient 2, ALS, 3 then 5 g per day, after approximately 2 months
  symptoms on re-examination: progredient deterioration of the motor function of the left hand, but a discrete improvement of walking
[4]; Ex. 7 Patient 3, ALS, 3 then 5 g per day, after one month
  symptomatology: did not report improvement of symptomatology
[4]; Ex. 7 Patient 4, ALS, 3 then 5 g per day, after about one month
  symptomatology: subjective improvement of dysphagia and less hypersalivation
[4]; Ex. 7 Patient 4, ALS, 10 days after therapy was suspended
  symptomatology after suspension: worsening of symptomatology
[5]; another case series (Pelz et al. 2015)
  benefit in cerebellar ataxia: did not find benefit
[5]; case series with cerebellar patients (Strupp et al. 2013)
  cerebellar ataxia symptoms: symptomatic improvement of cerebellar ataxia
[5]; quantitative gait analysis (Schniepp et al. 2015)
  temporal gait variability: improved temporal gait variability
[6]; Ex. 9, frontotemporal dementia with parkinsonism, 3 then 5 gram per day, approximately one month
  gait: significant improvement of gait
[6]; Ex. 9, under therapy
  speech: improvement of speech
[6]; Ex. 9, under therapy, before 2-3 falls per month
  falls: the patient's falls stopped
[7]
  gait properties: significantly improved gait
[8]
  fine motor skills and speech compared to older siblings: improved fine motor skills and improved speech
[9]
  LysoTracker fluorescence (lysosomal volume): trend in reducing LysoTracker fluorescence
[10]
  symptomatology: reduced dizziness (almost vanished), and a more stable gait
[11]; 5 g/day, three weeks on medication
  symptoms: all symptoms significantly improved
[11]; over two years on the same dosage
  side-effects: without any side-effects
[11]; two weeks after the medication was stopped
  signs and symptoms after stopping: the intensity of the signs and symptoms were the same as before therapy
[12]; Ex. 13 Patient 1, MSA-P, 3 g/day first week, 5 g/day thereafter, after 3 weeks
  symptoms: no significant improvement of gait, reduction of falls or improved hypokinetic rigid-syndrome
[12]; Ex. 13 Patient 2, MSA-P, 3 then 5 g per day, after one month
  symptoms: subjective improvement of dizziness
[12]; Ex. 13 Patient 3, MSA-P, 3 then 5 g per day, after one month, reported by the patient's spouse
  cognitive function: significant improvement of cognitive function
[12]; Ex. 13 Patient 3, MSA-P, after one month
  gait function: no improvement of gait function
